# Experimental data from patent publication US20260053811A1, “METHODS OF TREATING HYPERTENSION IN OBESE SUBJECTS” (Mineralys Therapeutics, Inc., priority 2022, published 2026).
# Tested on: hypertensive subjects
# Test: Estimated glomerular filtration rate (eGFR, CKD-EPI equation)
# Assay type: in vivo, human
# Details: for Estimated Glomerular Filtration Rate, Mean (SD) Observed / Estimated Glomerular Filtration Rate, Mean (SD) Change from Baseline: Part 1; for Estimated Glomerular Filtration Rate, Mean Change from Baseline / Estimated Glomerular Filtration Rate, Mean Observed: Part 2; for Change in estimated glomerular filtration rate (eGFR): across dosing cohorts
# Procedure: In contrast, mean eGFR for the Placebo group was relatively stable throughout treatment, reaching a mean maximal reduction of −2.80 mL/min/1.73 m^2 at Week 2 (range: −0.83 mL/min/1.73 m^2 to −2.80 mL/min/1.73 m^2). Estimated glomerular filtration rate was estimated using the CKD-EPI equation.
structure (smiles),measurement,setting,value
CC(=O)N[C@H]1CC[C@H](NC(=O)CN2CCN(c3nncc(-c4ccc(C)cc4)n3)CC2)CC1 [Compound A HBr],"Estimated Glomerular Filtration Rate, Mean (SD) Observed","Week 3, 12.5 mg BID",77.38 (16.68) mL/min/1.73 m^2
same,"Estimated Glomerular Filtration Rate, Mean (SD) Change from Baseline","Week 3, 12.5 mg QD",−2.05 (6.43) mL/min/1.73 m^2
same,"Estimated Glomerular Filtration Rate, Mean (SD) Observed","Week 3, 12.5 mg QD",77.21 (20.38) mL/min/1.73 m^2
same,"Estimated Glomerular Filtration Rate, Mean (SD) Change from Baseline","Week 3, 25 mg BID",−5.90 (8.63) mL/min/1.73 m^2
same,"Estimated Glomerular Filtration Rate, Mean (SD) Observed","Week 3, 25 mg BID",75.07 (11.95) mL/min/1.73 m^2
same,"Estimated Glomerular Filtration Rate, Mean (SD) Change from Baseline","Week 3, 50 mg QD",−2.35 (8.51) mL/min/1.73 m^2
same,"Estimated Glomerular Filtration Rate, Mean (SD) Observed","Week 3, 50 mg QD",74.81 (15.62) mL/min/1.73 m^2
same,"Estimated Glomerular Filtration Rate, Mean (SD) Change from Baseline","Week 3, 100 mg QD",−9.24 (10.99) mL/min/1.73 m^2
same,"Estimated Glomerular Filtration Rate, Mean (SD) Observed","Week 3, 100 mg QD",67.22 (19.24) mL/min/1.73 m^2
same,"Estimated Glomerular Filtration Rate, Mean (SD) Change from Baseline","Week 4, 12.5 mg BID",−6.58 (9.17) mL/min/1.73 m^2
same,"Estimated Glomerular Filtration Rate, Mean (SD) Observed","Week 4, 12.5 mg BID",76.30 (18.28) mL/min/1.73 m^2
same,"Estimated Glomerular Filtration Rate, Mean (SD) Change from Baseline","Week 4, 12.5 mg QD",−5.45 (6.37) mL/min/1.73 m^2
same,"Estimated Glomerular Filtration Rate, Mean (SD) Observed","Week 4, 12.5 mg QD",73.40 (19.29) mL/min/1.73 m^2
same,"Estimated Glomerular Filtration Rate, Mean (SD) Change from Baseline","Week 4, 25 mg BID",−6.69 (8.97) mL/min/1.73 m^2
same,"Estimated Glomerular Filtration Rate, Mean (SD) Observed","Week 4, 25 mg BID",73.48 (15.26) mL/min/1.73 m^2
same,"Estimated Glomerular Filtration Rate, Mean (SD) Change from Baseline","Week 4, 50 mg QD",−3.61 (9.24) mL/min/1.73 m^2
same,"Estimated Glomerular Filtration Rate, Mean (SD) Observed","Week 4, 50 mg QD",73.63 (16.75) mL/min/1.73 m^2
same,"Estimated Glomerular Filtration Rate, Mean (SD) Change from Baseline","Week 4, 100 mg QD",−9.46 (12.53) mL/min/1.73 m^2
same,"Estimated Glomerular Filtration Rate, Mean (SD) Observed","Week 4, 100 mg QD",67.23 (19.70) mL/min/1.73 m^2
same,"Estimated Glomerular Filtration Rate, Mean (SD) Change from Baseline","Week 5, 12.5 mg BID",−7.58 (8.00) mL/min/1.73 m^2
same,"Estimated Glomerular Filtration Rate, Mean (SD) Observed","Week 5, 12.5 mg BID",73.84 (20.78) mL/min/1.73 m^2
same,"Estimated Glomerular Filtration Rate, Mean (SD) Change from Baseline","Week 5, 12.5 mg QD",−3.60 (5.70) mL/min/1.73 m^2
same,"Estimated Glomerular Filtration Rate, Mean (SD) Observed","Week 5, 12.5 mg QD",75.25 (19.58) mL/min/1.73 m^2
same,"Estimated Glomerular Filtration Rate, Mean (SD) Change from Baseline","Week 5, 25 mg BID",−7.41 (9.65) mL/min/1.73 m^2
same,"Estimated Glomerular Filtration Rate, Mean (SD) Observed","Week 5, 25 mg BID",73.25 (14.75) mL/min/1.73 m^2
same,"Estimated Glomerular Filtration Rate, Mean (SD) Change from Baseline","Week 5, 50 mg QD",−4.10 (9.61) mL/min/1.73 m^2
same,"Estimated Glomerular Filtration Rate, Mean (SD) Observed","Week 5, 50 mg QD",70.58 (13.23) mL/min/1.73 m^2
same,"Estimated Glomerular Filtration Rate, Mean (SD) Change from Baseline","Week 5, 100 mg QD",−10.50 (10.94) mL/min/1.73 m^2
same,"Estimated Glomerular Filtration Rate, Mean (SD) Observed","Week 5, 100 mg QD",66.19 (19.58) mL/min/1.73 m^2
same,"Estimated Glomerular Filtration Rate, Mean (SD) Change from Baseline","Week 6, 12.5 mg BID",−6.45 (8.05) mL/min/1.73 m^2
same,"Estimated Glomerular Filtration Rate, Mean (SD) Observed","Week 6, 12.5 mg BID",74.70 (16.86) mL/min/1.73 m^2
same,"Estimated Glomerular Filtration Rate, Mean (SD) Change from Baseline","Week 6, 12.5 mg QD",−6.28 (6.77) mL/min/1.73 m^2
same,"Estimated Glomerular Filtration Rate, Mean (SD) Observed","Week 6, 12.5 mg QD",73.39 (20.48) mL/min/1.73 m^2
same,"Estimated Glomerular Filtration Rate, Mean (SD) Change from Baseline","Week 6, 25 mg BID",−8.02 (9.17) mL/min/1.73 m^2
same,"Estimated Glomerular Filtration Rate, Mean (SD) Observed","Week 6, 25 mg BID",72.64 (15.33) mL/min/1.73 m^2
same,"Estimated Glomerular Filtration Rate, Mean (SD) Change from Baseline","Week 6, 50 mg QD",−2.83 (8.61) mL/min/1.73 m^2
same,"Estimated Glomerular Filtration Rate, Mean (SD) Observed","Week 6, 50 mg QD",74.63 (16.59) mL/min/1.73 m^2
same,"Estimated Glomerular Filtration Rate, Mean (SD) Change from Baseline","Week 6, 100 mg QD",−9.94 (12.91) mL/min/1.73 m^2
same,"Estimated Glomerular Filtration Rate, Mean (SD) Observed","Week 6, 100 mg QD",66.19 (21.44) mL/min/1.73 m^2
same,"Estimated Glomerular Filtration Rate, Mean (SD) Change from Baseline","Week 7, 12.5 mg BID",−7.03 (8.98) mL/min/1.73 m^2
same,"Estimated Glomerular Filtration Rate, Mean (SD) Observed","Week 7, 12.5 mg BID",75.85 (21.29) mL/min/1.73 m^2
same,"Estimated Glomerular Filtration Rate, Mean (SD) Change from Baseline","Week 7, 12.5 mg QD",−7.17 (8.80) mL/min/1.73 m^2
same,"Estimated Glomerular Filtration Rate, Mean (SD) Observed","Week 7, 12.5 mg QD",72.50 (22.45) mL/min/1.73 m^2
same,"Estimated Glomerular Filtration Rate, Mean (SD) Change from Baseline","Week 7, 25 mg BID",−7.85 (9.47) mL/min/1.73 m^2
same,"Estimated Glomerular Filtration Rate, Mean (SD) Observed","Week 7, 25 mg BID",72.22 (13.89) mL/min/1.73 m^2
same,"Estimated Glomerular Filtration Rate, Mean (SD) Change from Baseline","Week 7, 50 mg QD",−5.46 (10.42) mL/min/1.73 m^2
same,"Estimated Glomerular Filtration Rate, Mean (SD) Observed","Week 7, 50 mg QD",69.68 (12.23) mL/min/1.73 m^2
same,"Estimated Glomerular Filtration Rate, Mean (SD) Change from Baseline","Week 7, 100 mg QD",−9.50 (12.17) mL/min/1.73 m^2
same,"Estimated Glomerular Filtration Rate, Mean (SD) Observed","Week 7, 100 mg QD",66.96 (21.02) mL/min/1.73 m^2
same,"Estimated Glomerular Filtration Rate, Mean (SD) Change from Baseline","Week 8, 12.5 mg BID",−6.66 (7.92) mL/min/1.73 m^2
same,"Estimated Glomerular Filtration Rate, Mean (SD) Observed","Week 8, 12.5 mg BID",76.32 (19.63) mL/min/1.73 m^2
same,"Estimated Glomerular Filtration Rate, Mean (SD) Change from Baseline","Week 8, 12.5 mg QD",−3.67 (8.10) mL/min/1.73 m^2
same,"Estimated Glomerular Filtration Rate, Mean (SD) Observed","Week 8, 12.5 mg QD",76.00 (21.00) mL/min/1.73 m^2
same,"Estimated Glomerular Filtration Rate, Mean (SD) Change from Baseline","Week 8, 25 mg BID",−5.55 (9.22) mL/min/1.73 m^2
same,"Estimated Glomerular Filtration Rate, Mean (SD) Observed","Week 8, 25 mg BID",75.11 (14.81) mL/min/1.73 m^2
same,"Estimated Glomerular Filtration Rate, Mean (SD) Change from Baseline","Week 8, 50 mg QD",−4.64 (9.87) mL/min/1.73 m^2
same,"Estimated Glomerular Filtration Rate, Mean (SD) Observed","Week 8, 50 mg QD",72.54 (16.89) mL/min/1.73 m^2
same,"Estimated Glomerular Filtration Rate, Mean (SD) Change from Baseline","Week 8, 100 mg QD",−7.83 (11.62) mL/min/1.73 m^2
same,"Estimated Glomerular Filtration Rate, Mean (SD) Observed","Week 8, 100 mg QD",68.42 (20.14) mL/min/1.73 m^2
same,"Estimated Glomerular Filtration Rate, Mean Change from Baseline","Week 1, 100 mg QD",−9.65 mL/min/1.73 m^2
same,"Estimated Glomerular Filtration Rate, Mean Observed","Week 1, 100 mg QD",70.73 mL/min/1.73 m^2
same,"Estimated Glomerular Filtration Rate, Mean Change from Baseline","Week 2, 100 mg QD",−8.05 mL/min/1.73 m^2
same,"Estimated Glomerular Filtration Rate, Mean Observed","Week 2, 100 mg QD",72.07 mL/min/1.73 m^2
same,"Estimated Glomerular Filtration Rate, Mean Change from Baseline","Week 3, 100 mg QD",−7.33 mL/min/1.73 m^2
same,"Estimated Glomerular Filtration Rate, Mean Observed","Week 3, 100 mg QD",72.69 mL/min/1.73 m^2
same,"Estimated Glomerular Filtration Rate, Mean Change from Baseline","Week 4, 100 mg QD",−7.20 mL/min/1.73 m^2
same,"Estimated Glomerular Filtration Rate, Mean Observed","Week 4, 100 mg QD",72.92 mL/min/1.73 m^2
same,"Estimated Glomerular Filtration Rate, Mean Change from Baseline","Week 5, 100 mg QD",−8.69 mL/min/1.73 m^2
same,"Estimated Glomerular Filtration Rate, Mean Observed","Week 5, 100 mg QD",71.23 mL/min/1.73 m^2
same,"Estimated Glomerular Filtration Rate, Mean Change from Baseline","Week 6, 100 mg QD",−10.87 mL/min/1.73 m^2
same,"Estimated Glomerular Filtration Rate, Mean Observed","Week 6, 100 mg QD",68.04 mL/min/1.73 m^2
same,"Estimated Glomerular Filtration Rate, Mean Change from Baseline","Week 7, 100 mg QD",−7.34 mL/min/1.73 m^2
same,"Estimated Glomerular Filtration Rate, Mean Observed","Week 7, 100 mg QD",72.82 mL/min/1.73 m^2
same,"Estimated Glomerular Filtration Rate, Mean Change from Baseline","Week 8, 100 mg QD",−7.95 mL/min/1.73 m^2
same,"Estimated Glomerular Filtration Rate, Mean Observed","Week 8, 100 mg QD",72.43 mL/min/1.73 m^2
same,Change in estimated glomerular filtration rate (eGFR),,dose-dependent and reversible reduction in eGFR
same,Change in estimated glomerular filtration rate (eGFR),listed as lorundrostat,dose-dependent and reversible reduction in eGFR
